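Five concentrations, 48 hours, 96-well plates. GI50 = concentration required for 50% inhibition of growth.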 Calls of active or inactive are those of the source. Cut-off read from the data, not from the text of the source: active = GI50 up to about 1.1 µM and inactive = higher.
Tests used:
Experiment in all cases: NCI-60 cell line screen, 48 h
[1] = tested on: KM12
[2] = tested on: NCI-H460
[3] = tested on: LOX IMVI
[4] = tested on: UACC-257
[5] = tested on: OVCAR-4
[6] = tested on: NCI-H226
[7] = tested on: HCC 2998
[8] = tested on: SNB-19
[9] = tested on: COLO 205
[10] = tested on: SK-MEL-2
[11] = tested on: HOP-92
[12] = tested on: OVCAR-3
[13] = tested on: SK-MEL-28
[14] = tested on: T47D
[15] = tested on: MOLT-4
[16] = tested on: NCI-H23
[17] = tested on: UO-31
[18] = tested on: UACC-62
[19] = tested on: MCF7
[20] = tested on: HCT-15
[21] = tested on: SF-295
[22] = tested on: HOP-62
[23] = tested on: Hs-578T
[24] = tested on: NCI-H522
[25] = tested on: RXF 393
[26] = tested on: SN12C
[27] = tested on: PC-3
[28] = tested on: BT-549
[29] = tested on: M14
[30] = tested on: HT-29
[31] = tested on: SNB-75
[32] = tested on: ACHN
[33] = tested on: EKVX
[34] = tested on: SF-268
[35] = tested on: OVCAR-5
[36] = tested on: CAKI-1
[37] = tested on: MDA-N
[38] = tested on: SK-MEL-5
[39] = tested on: U-251
[40] = tested on: IGROV-1
[41] = tested on: MDA-MB-231
[42] = tested on: OVCAR-8
[43] = tested on: SK-OV-3
[44] = tested on: RPMI-8226
[45] = tested on: A549
[46] = tested on: 786-0
[47] = tested on: SF-539
[48] = tested on: K562
[49] = tested on: Malme-3M
[50] = tested on: DU-145
[51] = tested on: TK-10
[52] = tested on: NCI/ADR-RES
[53] = tested on: MDA-MB-435
[54] = tested on: HCT-116
[55] = tested on: CCRF-CEM
[56] = tested on: SR
[57] = tested on: SW-620
[58] = tested on: HL-60
[59] = tested on: A498

Measured: GI50

C=CCN(c1cc(OCc2ccccc2)c2c(c(C)cn2S(=O)(=O)c2ccc([N+](=O)[O-])cc2)c1[N+](=O)[O-])S(C)(=O)=O
inactive: [1] 4.86 µM | [2] > 100 µM | [3] > 100 µM | [4] > 100 µM | [5] > 100 µM | [6] > 100 µM | [7] > 100 µM | [8] > 100 µM | [9] > 100 µM | [10] > 100 µM | [11] > 100 µM | [12] > 100 µM | [13] > 100 µM | [14] > 100 µM | [15] > 100 µM | [16] > 100 µM | [17] > 100 µM | [18] > 100 µM | [19] > 100 µM | [21] > 78.5 µM | [22] > 100 µM | [23] > 100 µM | [24] > 100 µM | [25] > 100 µM | [26] > 100 µM | [27] > 100 µM | [28] > 100 µM | [29] 29.1 µM | [30] 8.77 µM | [31] > 37.8 µM | [32] > 100 µM | [33] > 100 µM | [34] > 100 µM | [35] > 100 µM | [36] > 100 µM | [37] 4.07 µM | [38] 43.7 µM | [39] > 100 µM | [40] > 100 µM | [41] > 89.5 µM | [42] > 100 µM | [43] > 100 µM | [44] > 100 µM | [45] > 84.5 µM | [46] > 100 µM | [47] > 100 µM | [48] 5.08 µM | [49] > 100 µM | [50] > 100 µM | [51] > 100 µM | [52] > 100 µM | [53] 1.47 µM | [54] > 100 µM
31.6 µM: [20]

CCC/C(Cl)=N\OC(=O)Nc1cccc(C(F)(F)F)c1
inactive: [1] 17.6 µM | [2] 19.4 µM | [3] 6.84 µM | [4] 17.5 µM | [5] 22.6 µM | [6] 20.5 µM | [7] 18.2 µM | [8] > 100 µM | [9] 3.05 µM | [10] 16.7 µM | [55] 2.43 µM | [12] 22.4 µM | [13] 19.2 µM | [14] 23.9 µM | [15] 2.94 µM | [56] 2.26 µM | [16] 20.7 µM | [17] 19.6 µM | [18] 18.9 µM | [19] 14 µM | [21] 13.5 µM | [22] > 100 µM | [23] 29.7 µM | [24] 1.96 µM | [25] 19.6 µM | [26] 15.1 µM | [27] 17.6 µM | [28] 10.6 µM | [29] 17.7 µM | [57] 2.81 µM | [30] 21.8 µM | [31] 10.4 µM | [32] 16.3 µM | [33] 16.6 µM | [34] 27.3 µM | [35] 20.3 µM | [36] 18.1 µM | [37] 17.6 µM | [38] 15.5 µM | [39] 18.5 µM | [40] 17.1 µM | [41] 17 µM | [42] 17.9 µM | [43] 13.6 µM | [44] 4.61 µM | [58] 1.88 µM | [45] 19.7 µM | [46] 16 µM | [47] 18.7 µM | [48] 2.28 µM | [59] 17.8 µM | [49] 13.2 µM | [50] 13.2 µM | [51] 15.4 µM | [52] 20.6 µM | [54] 18.2 µM
13.5 µM: [20]

— ChEMBL document CHEMBL1201862, “PubChem BioAssay data set” (2004)
